Source: PMC6934184, “Selective DNA-PKcs inhibition extends the therapeutic index of localized radiotherapy and chemotherapy” (The Journal of Clinical Investigation, 2019)

Target: T1, ITK (Homo sapiens, UniProt Q08881)
T1 construct: purchased Thermo Fisher Scientific (Life Technologies) SelectScreen
Assay: SelectScreen Z'LYTE
Assay type: biochemical
Method: The in vitro kinase selectivity of NU5455 was determined using the SelectScreen Broad Assay Panel (Thermo Fisher Scientific) involving activity and binding assays (Supplemental Table 1). […] Class IA PI3Ks were measured using the p85α subunit.
Kinase [ATP] % Assay Kinase [ATP] % Assay Kinase [ATP] % Assay Kinase [ATP] % Assay
DNA-PK Km app 98.3 Z LATS2 n/a 4.7 L KIT D820E n/a 1.3 L GSK3B (GSK3 beta) Km app -2.5 Z
PIK3C3 (hVPS34) Km app 85.9 A PRKCZ (PKC zeta) Km app 4.7 Z GRK1 n/a 1.3 L BMPR2 n/a -2.5 L
PIK3C2B (PI3K-C2 beta) 10 28.9 A FGFR1 Km app 4.7 Z BRSK2 n/a 1.2 L CDC42 BPB (MRCKB) Km app -2.5 Z
SNF1LK2 Km app 26.6 Z MINK1 Km app 4.6 Z NUAK1 (ARK5) Km app 1.2 A AMPK (A2/B2/G2) n/a -2.6 L
HCK Km app 18.0 Z CSF1R (FMS) Km app 4.3 Z CDK9/cyclin K n/a 1.0 L PRKG1 Km app -2.7 Z
NEK2 Km app 17.8 Z CSNK1G3 (CK1 gamma 3) Km app 4.2 Z NUAK2 n/a 1.0 L KIT T670E n/a -2.8 L
ALK Km app 17.3 Z STK32C (YANK3) n/a 4.2 L CDK2/cyclin O n/a 0.9 L ERBB4 (HER4) Km app -2.8 Z
FGFR3 K650M n/a 16.5 L STK22D (TSSK1) Km app 4.2 Z CAMKK2 (CaMKK beta) n/a 0.9 L PLK4 n/a -2.8 L
SIK3 n/a 16.1 L TAOK3 (JIK) n/a 4.2 L FGFR3 Km app 0.9 Z GRK7 Km app -3.0 Z
LYN A Km app 15.2 Z RPS6KA4 (MSK2) Km app 4.2 Z ULK2 n/a 0.9 L MAPKAPK2 Km app -3.1 Z
BMPR1B (ALK6) n/a 14.5 L PTK2B (FAK2) Km app 4.2 Z KIT D816V n/a 0.9 L FGFR4 Km app -3.1 Z
INSRR (IRR) Km app 14.1 Z CLK2 Km app 4.1 Z CAMK1 (CaMK1) 10 0.8 A CASK n/a -3.1 L
PLK2 Km app 14.1 Z STK24 (MST3) Km app 4.1 Z PTK6 (Brk) Km app 0.7 Z GRK5 Km app -3.2 Z
PRKACA (PKA) Km app 14.0 Z CAMK1D (CaMKI delta) Km app 4.1 Z CAMK2B (CaMKII beta) Km app 0.7 Z EGFR (ErbB1) T790M Km app -3.3 Z
EIF2AK2 (PKR) n/a 13.3 L INSR Km app 4.1 Z ACVR1 (ALK2) n/a 0.7 L PAK4 Km app -3.3 Z
PRKX Km app 12.5 Z IRAK1 Km app 4.0 A ABL1 H396P n/a 0.6 L DAPK3 (ZIPK) Km app -3.4 Z
FGR Km app 12.1 Z SRC N1 Km app 3.9 Z MERTK (cMER) A708S n/a 0.6 L RET M918T n/a -3.5 L
CLK1 Km app 11.7 Z SRPK2 Km app 3.9 Z MAPKAPK5 (PRAK) Km app 0.6 Z PRKCQ (PKC theta) Km app -3.7 Z
MARK3 Km app 11.4 Z RPS6KA6 (RSK4) Km app 3.8 Z AKT1 (PKB alpha) Km app 0.5 Z CAMKK1 (CAMKKA) n/a -3.8 L
PDGFRB (PDGFR beta) Km app 11.0 Z GRK6 Km app 3.7 Z NTRK3 (TRKC) Km app 0.4 Z FLT3 D835Y Km app -3.9 Z
PRKCN (PKD3) Km app 10.7 Z PKN1 (PRK1) Km app 3.6 Z ZAP70 Km app 0.3 Z ROCK2 Km app -4.1 Z
STK16 (PKL12) n/a 10.5 L MAP3K8 (COT) 100 3.5 Z CSNK1A1 (CK1 alpha 1) Km app 0.3 Z CHUK (IKK alpha) Km app -4.2 A
FES (FPS) Km app 10.4 Z FLT4 (VEGFR3) Km app 3.5 Z MYLK (MLCK) n/a 0.2 L AXL Km app -4.2 Z
ABL1 Km app 10.4 Z GRK4 Km app 3.5 Z MKNK2 (MNK2) n/a 0.2 L PIM2 Km app -4.3 Z
MUSK Km app 10.3 Z FRK (PTK5) Km app 3.4 Z AMPK (A1/B1/G3) n/a 0.2 L PAK1 Km app -4.4 Z
MAPK1 (ERK2) Km app 10.1 Z FYN A n/a 3.3 L MAP3K2 (MEKK2) n/a 0.1 L BMPR1A (ALK3) n/a -4.4 L
BRAF 100 9.9 Z CDK1/cyclin A2 n/a 3.3 L CDK8/cyclin C n/a 0.1 L STK4 (MST1) Km app -4.4 Z
IGF1R Km app 9.7 Z KIT V559D T670I n/a 3.1 L MARK2 Km app 0.1 Z PRKCH (PKC eta) Km app -4.6 Z
MAPK14 (p38 alpha) Km app 9.7 Z SPHK2 10 3.1 A ICK n/a 0.0 L SGKL (SGK3) Km app -4.6 Z
LCK Km app 9.6 Z FGFR3 G697C n/a 3.1 L FGFR2 Km app 0.0 Z PI4KB (PI4K beta) Km app -4.7 A
MAPK11 (p38 beta) Km app 9.5 Z RIPK2 n/a 3.1 L AKT2 (PKB beta) Km app 0.0 Z PRKCE (PKC epsilon) Km app -4.9 Z
SRC Km app 9.5 Z PAK6 Km app 3.0 Z EPHB2 Km app -0.1 Z PHKG1 Km app -5.0 Z
CHEK1 (CHK1) Km app 9.3 Z LYN B Km app 3.0 Z TGFBR2 n/a -0.1 L PDGFRA D842V Km app -5.0 Z
CAMK2D (CaMKII delta) Km app 9.3 Z DAPK2 n/a 2.9 L TEK (Tie2) Km app -0.1 Z PRKG2 (PKG2) Km app -5.1 Z
PLK1 Km app 9.2 Z EPHA4 Km app 2.9 Z AURKA (Aurora A) Km app -0.1 Z TYRO3 (RSE) Km app -5.1 Z
RET Y791F Km app 9.2 Z PIK3CG (p110 gamma) Km app 2.9 A KIT D816H n/a -0.2 L TAOK2 (TAO1) Km app -5.1 Z
FLT3 Km app 9.1 Z HIPK1 (Myak) Km app 2.8 Z KIT N822K n/a -0.2 L EPHB4 Km app -5.3 Z
MAPK10 (JNK3) 100 9.0 Z ADRBK2 (GRK3) Km app 2.8 Z PRKACG (PRKAC gamma) n/a -0.2 L AURKC (Aurora C) Km app -5.4 Z
CSNK2A2 (CK2 alpha 2) Km app 8.7 Z STK17B (DRAK2) n/a 2.7 L TEK (TIE2) Y1108F n/a -0.3 L JAK1 Km app -5.7 Z […]

T1 sequence (Q08881 whole entry): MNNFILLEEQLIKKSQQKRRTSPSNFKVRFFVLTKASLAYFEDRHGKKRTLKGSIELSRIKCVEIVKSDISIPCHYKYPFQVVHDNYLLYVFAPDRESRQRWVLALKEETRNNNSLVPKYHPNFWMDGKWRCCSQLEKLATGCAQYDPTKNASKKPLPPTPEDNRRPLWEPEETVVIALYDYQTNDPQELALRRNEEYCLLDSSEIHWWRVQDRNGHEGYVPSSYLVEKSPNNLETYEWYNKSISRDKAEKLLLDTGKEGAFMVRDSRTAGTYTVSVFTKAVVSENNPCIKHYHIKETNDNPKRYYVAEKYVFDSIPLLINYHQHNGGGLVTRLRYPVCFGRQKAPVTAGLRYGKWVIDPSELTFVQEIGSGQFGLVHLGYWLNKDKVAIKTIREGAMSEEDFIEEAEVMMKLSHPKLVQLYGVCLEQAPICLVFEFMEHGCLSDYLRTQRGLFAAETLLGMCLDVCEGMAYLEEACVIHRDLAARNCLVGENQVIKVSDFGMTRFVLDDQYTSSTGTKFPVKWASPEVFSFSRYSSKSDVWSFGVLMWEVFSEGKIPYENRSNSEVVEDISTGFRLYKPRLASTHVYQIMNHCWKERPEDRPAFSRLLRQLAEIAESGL

## CN(C(=O)CN1CCOCC1)c1ccc2sc3c(-c4cccc5c(=O)cc(N6CC7CCC(C6)O7)oc45)cccc3c2c1 [NU5455]
  inhibition at 1 µM: 5.5%
